The values below come from patent publication US20090197880A1 (Genelabs Technologies, Inc., priority 2007, published 2009).

Molecules are shown by their SMILES.

The nature of the first assay: HCV replicon assay (luciferase) in ET (Huh-lucubineo-ET) cell line. The conditions noted are these: Hepatitis C virus; tested at 5 μM; inhibition of replication relative to no compound control; ET replicon cells, luciferase 48-72 hours. In kind it is cell-based. On the technique in general: Replicon systems follow genome replication, usually without infectious particles.
With `Fc1ccccc1-c1nc2cnn(Cc3nc(-c4ccc(Cl)cc4)no3)cc-2n1` [Compound 113, 5-[3-(4-Chloro-phenyl)-[1,2,4]oxadiazol-5-ylmethyl]-2-(2-fluoro-phenyl)-5H-imidazo[4,5-d]pyridazine], the inhibition at 5 µM was 24.9%.

Still in this assay, the particulars now being: Hepatitis C virus; tested at 10 μM; inhibition of replication relative to no compound control; ET replicon cells, luciferase 48-72 hours; read-out: % inhition at 10 μM.
In the case of `Cc1cc(CCc2ccc(-c3cc(Cn4cc5nc(-c6cccc(F)c6F)nc-5cn4)on3)cc2)cc(C)n1` [Compound 311, 2-(2,3-Difluoro-phenyl)-5-(3-{4-[2-(2,6-dimethyl-pyridin-4-yl)-ethyl]-phenyl}-isoxazol-5-ylmethyl)-5H-imidazo[4,5-d]pyridazine], the inhibition at 10 µM came out at 96.7%.

Take `CC(c1cc(-c2ccc(C(F)(F)F)cc2C(F)(F)F)no1)n1cc2nc(-c3cccc(F)c3F)nc-2cn1` (stereo not drawn) [Compound 226, 5-{1-[3-(2,4-Bis-trifluoromethyl-phenyl)-isoxazol-5-yl]-ethyl}-2-(2,3-difluoro-phenyl)-5H-imidazo[4,5-d]pyridazine]: the inhibition at 10 µM came out at 99.7%.

Consider `N#Cc1ccc(-c2cc(Cn3cc4nc(-c5ccccc5F)nc-4cn3)on2)cc1` [Compound 284, 4-{5-[2-(2-Fluoro-phenyl)-imidazo[4,5-d]pyridazin-5-ylmethyl]-isoxazol-3-yl}-benzonitrile], for which the inhibition at 10 µM turned out to be 77.4%.

Regarding `Fc1cccc(-c2nc3cnn(Cc4cc(-c5ccc(OCC(F)(F)F)cc5)no4)cc-3n2)c1F` [Compound 295, 2-(2,3-Difluoro-phenyl)-5-{3-[4-(2,2,2-trifluoro-ethoxy)-phenyl]-isoxazol-5-ylmethyl}-5H-imidazo[4,5-d]pyridazine], the inhibition at 10 µM was 100%.

With `FC(F)(F)c1ccc(-c2nc3cnn(Cc4cc(-c5ccc(C(F)(F)F)cc5C(F)(F)F)no4)cc-3n2)cc1` [Compound 135, 5-[3-(2,4-Bis-trifluoromethyl-phenyl)-isoxazol-5-ylmethyl]-2-(4-trifluoromethyl-phenyl)-5H-imidazo[4,5-d]pyridazine], the inhibition at 10 µM turned out to be 0.79%.

As to `CCCOc1ccc(-c2cc(Cn3cc4nc(-c5ccc(F)cc5)nc-4cn3)on2)cc1` [Compound 145, 2-(4-Fluoro-phenyl)-5-[3-(4-propoxy-phenyl)-isoxazol-5-ylmethyl]-5H-imidazo[4,5-d]pyridazine], the inhibition at 10 µM was found to be 85.6%.

As to `CCCCc1ccc(-c2cc(Cn3cc4nc(-c5cccc(F)c5F)nc-4cn3)on2)c(C(F)(F)F)c1` [Compound 186, 5-[3-(4-Butyl-2-trifluoromethyl-phenyl)-isoxazol-5-ylmethyl]-2-(2,3-difluoro-phenyl)-5H-imidazo[4,5-d]pyridazine], the inhibition at 10 µM was 100%.

Take `FCCCOc1ccc(-c2cc(Cn3cc4nc(-c5cccc(F)c5F)nc-4cn3)on2)cc1` [Compound 207, 2-(2,3-Difluoro-phenyl)-5-{3-[4-(3-fluoro-propoxy)-phenyl]-isoxazol-5-ylmethyl}-5H-imidazo[4,5-d]pyridazine]: the inhibition at 10 µM was determined as 99.5%.

Consider `Cc1nc(C)c(-c2cc(Cn3cc4nc(-c5cccc(F)c5F)nc-4cn3)on2)s1` [Compound 149, 2-(2,3-Difluoro-phenyl)-5-[3-(2,4-dimethyl-thiazol-5-yl)-isoxazol-5-ylmethyl]-5H-imidazo[4,5-d]pyridazine], for which the inhibition at 10 µM stood at 43.7%.

Take `Oc1ccccc1-c1nc2cnn(Cc3cc(-c4ccc(C(F)(F)F)cc4C(F)(F)F)no3)cc-2n1` [Compound 134, 2-{5-[3-(2,4-Bis-trifluoromethyl-phenyl)-isoxazol-5-ylmethyl]-5H-imidazo[4,5-d]pyridazin-2-yl}-phenol]: the inhibition at 10 µM turned out to be 0.51%.

As for `Fc1cc(-c2cc(Cn3cc4nc(-c5cccc(F)c5F)nc-4cn3)on2)ccc1C(F)(F)F` [Compound 206, 2-(2,3-Difluoro-phenyl)-5-[3-(3-fluoro-4-trifluoromethyl-phenyl)-isoxazol-5-ylmethyl]-5H-imidazo[4,5-d]pyridazine], the inhibition at 10 µM is 98.1%.

`Fc1ccccc1-c1nc2cnn(Cc3cc(-c4ccc(Br)cn4)no3)cc-2n1` [Compound 289, 5-[3-(5-Bromo-pyridin-2-yl)-isoxazol-5-ylmethyl]-2-(2-fluoro-phenyl)-5H-imidazo[4,5-d]pyridazine]: the inhibition at 10 µM stood at 57.3%.

On to `CCCCOc1ccc(-c2cc(Cn3cc4nc(-c5cccc(F)c5F)nc-4cn3)on2)cc1` [Compound 222, 5-[3-(4-Butoxy-phenyl)-isoxazol-5-ylmethyl]-2-(2,3-difluoro-phenyl)-5H-imidazo[4,5-d]pyridazine], for which the inhibition at 10 µM is 98.2%.

On to `CC(C)Cc1ccc(-c2cc(Cn3cc4nc(-c5cccc(F)c5F)nc-4cn3)on2)c(C(F)(F)F)c1` [Compound 323, 2-(2,3-Difluoro-phenyl)-5-[3-(4-isobutyl-2-trifluoromethyl-phenyl)-isoxazol-5-ylmethyl]-5H-imidazo[4,5-d]pyridazine], for which the inhibition at 10 µM was determined as 100%.

`Fc1cccc(-c2nc3cnn(Cc4cc(-c5ccc(OC(F)F)cc5)no4)cc-3n2)c1F` [Compound 176, 5-[3-(4-Difluoromethoxy-phenyl)-isoxazol-5-ylmethyl]-2-(2,3-difluoro-phenyl)-5H-imidazo[4,5-d]pyridazine]: the inhibition at 10 µM was found to be 99.8%.

For `COCCCOc1ccc(-c2cc(Cn3cc4nc(-c5cccc(F)c5F)nc-4cn3)on2)cc1` [Compound 312, 2-(2,3-Difluoro-phenyl)-5-{3-[4-(3-methoxy-propoxy)-phenyl]-isoxazol-5-ylmethyl}-5H-imidazo[4,5-d]pyridazine], the inhibition at 10 µM was found to be 98.1%.

Turning to `Fc1ccccc1-c1nc2cnn(Cc3nc(-c4ccc(Cl)cc4)no3)cc-2n1` [Compound 113, 5-[3-(4-Chloro-phenyl)-[1,2,4]oxadiazol-5-ylmethyl]-2-(2-fluoro-phenyl)-5H-imidazo[4,5-d]pyridazine], the inhibition at 10 µM amounted to 41.7%.

For the compound `CCCOc1ccc(-c2cc(Cn3cc4nc(-c5ccco5)nc-4cn3)on2)cc1` [Compound 144, 2-Furan-2-yl-5-[3-(4-propoxy-phenyl)-isoxazol-5-ylmethyl]-5H-imidazo[4,5-d]pyridazine], the inhibition at 10 µM is 92.2%.

With `Fc1cccc(-c2nc3cnn(Cc4cc(-c5ccc(OCCCN6CCOCC6)cc5)no4)cc-3n2)c1F` [Compound 273, 2-(2,3-Difluoro-phenyl)-5-{3-[4-(3-morpholin-4-yl-propoxy)-phenyl]-isoxazol-5-ylmethyl}-5H-imidazo[4,5-d]pyridazine], the inhibition at 10 µM turned out to be 94%.

For the compound `CC(C)c1ccc(-c2cc(Cn3cc4nc(-c5cccc(F)c5F)nc-4cn3)on2)cc1` [Compound 305, 2-(2,3-Difluoro-phenyl)-5-[3-(4-isopropyl-phenyl)-isoxazol-5-ylmethyl]-5H-imidazo[4,5-d]pyridazine], the inhibition at 10 µM was 99.4%.

On to `COc1ccc(-c2cc(Cn3cc4nc(-c5cccc(F)c5F)nc-4cn3)on2)c(F)c1` [Compound 313, 2-(2,3-Difluoro-phenyl)-5-[3-(2-fluoro-4-methoxy-phenyl)-isoxazol-5-ylmethyl]-5H-imidazo[4,5-d]pyridazine], for which the inhibition at 10 µM worked out at 99.2%.

`Fc1cccc(-c2nc3cnn(Cc4cc(-c5ccc(C#CC6CC6)cc5)no4)cc-3n2)c1F` [Compound 339, 5-[3-(4-Cyclopropylethynyl-phenyl)-isoxazol-5-ylmethyl]-2-(2,3-difluoro-phenyl)-5H-imidazo[4,5-d]pyridazine]: the inhibition at 10 µM came to 99.8%.

As to `N#Cc1ccc(-c2cc(Cn3cc4nc(-c5cccc(F)c5F)nc-4cn3)on2)cc1` [Compound 213, 4-{5-[2-(2,3-Difluoro-phenyl)-imidazo[4,5-d]pyridazin-5-ylmethyl]-isoxazol-3-yl}-benzonitrile], the inhibition at 10 µM worked out at 98.1%.

Turning to `CN(C)c1ccc(-c2cc(Cn3cc4nc(-c5cccc(F)c5F)nc-4cn3)on2)cc1` [Compound 208, (4-{5-[2-(2,3-Difluoro-phenyl)-imidazo[4,5-d]pyridazin-5-ylmethyl]-isoxazol-3-yl}-phenyl)-dimethyl-amine], the inhibition at 10 µM worked out at 69.7%.

Turning to `FC(F)(F)c1ccc(-c2cc(Cn3cc4nc(NC5CCc6ccccc65)nc-4cn3)on2)c(C(F)(F)F)c1` (stereo not drawn) [Compound 259], the inhibition at 10 µM amounted to 50.6%.

On to `CC(=O)OCCCOc1ccc(-c2cc(Cn3cc4nc(-c5cccc(F)c5F)nc-4cn3)on2)cc1` [Compound 272, Acetic Acid 3-(4-{5-[2-(2,3-difluoro-phenyl)-imidazo[4,5-d]pyridazin-5-ylmethyl]-isoxazol-3-yl}-phenoxy)-propyl Ester], for which the inhibition at 10 µM turned out to be 91.1%.

For `Fc1cccc(-c2nc3cnn(Cc4cc(-c5ccccc5)no4)cc-3n2)c1F` [Compound 337, 2-(2,3-Difluoro-phenyl)-5-(3-phenyl-isoxazol-5-ylmethyl)-5H-imidazo[4,5-d]pyridazine], the inhibition at 10 µM was 68.5%.

As to `Fc1cccc(-c2nc3cnn(Cc4cc(-c5ccc(C(F)F)cc5)no4)cc-3n2)c1F` [Compound 336, 5-[3-(4-Difluoromethyl-phenyl)-isoxazol-5-ylmethyl]-2-(2,3-difluoro-phenyl)-5H-imidazo[4,5-d]pyridazine], the inhibition at 10 µM was found to be 99.7%.

Take `Fc1cccc(-c2nc3cnn(Cc4cc(-c5ccc(I)cc5)no4)cc-3n2)c1F` [Compound 306, 2-(2,3-Difluoro-phenyl)-5-[3-(4-iodo-phenyl)-isoxazol-5-ylmethyl]-5H-imidazo[4,5-d]pyridazine]: the inhibition at 10 µM worked out at 99.9%.

As for `FC(F)(F)c1ccc(-c2cc(Cn3cc4nc(-c5cccc6[nH]ccc56)nc-4cn3)on2)c(C(F)(F)F)c1` [Compound 136, 5-[3-(2,4-Bis-trifluoromethyl-phenyl)-isoxazol-5-ylmethyl]-2-(1H-indol-4-yl)-5H-imidazo[4,5-d]pyridazine], the inhibition at 10 µM turned out to be 5.84%.

As to `Fc1cccc(-c2nc3cnn(Cc4cc(-c5ccc(COc6cccnc6)cc5)no4)cc-3n2)c1F` [Compound 178, 2-(2,3-Difluoro-phenyl)-5-{3-[4-(pyridin-3-yloxymethyl)-phenyl]-isoxazol-5-ylmethyl}-5H-imidazo[4,5-d]pyridazine], the inhibition at 10 µM was 98.7%.

Take `Fc1ccccc1-c1nc2cnn(Cc3cc(-c4ccc(Cl)cc4)on3)cc-2n1` [Compound 239, 5-[5-(4-Chloro-phenyl)-isoxazol-3-ylmethyl]-2-(2-fluoro-phenyl)-5H-imidazo[4,5-d]pyridazine]: the inhibition at 10 µM is 95.3%.
